Data published in article PMC9693223 (Molecules, 2022).
Where two headings read alike, the source gives them in different places.

Legend:
TcrNT2 = TcrNT2 (Trypanosoma cruzi, UniProt Q4DHG0); assay: Transport of [^3H]-thymidine by TcrNT2 expressed in L. mexicana Cas9^ΔNT1 (Km, inhibition); type: cell-based; conditions: for δ(ΔG°) with respect to ΔG° of thymidine: change in ΔG° relative to thymidine; for δ(ΔG°), pairwise comparison with uridine: pairwise comparison vs. uridine; for δ(ΔG°), pairwise comparison with 2′-deoxyuridine: pairwise comparison vs. 2′-deoxyuridine
Chain of TcrNT2 (Q4DHG0 entry or part of it): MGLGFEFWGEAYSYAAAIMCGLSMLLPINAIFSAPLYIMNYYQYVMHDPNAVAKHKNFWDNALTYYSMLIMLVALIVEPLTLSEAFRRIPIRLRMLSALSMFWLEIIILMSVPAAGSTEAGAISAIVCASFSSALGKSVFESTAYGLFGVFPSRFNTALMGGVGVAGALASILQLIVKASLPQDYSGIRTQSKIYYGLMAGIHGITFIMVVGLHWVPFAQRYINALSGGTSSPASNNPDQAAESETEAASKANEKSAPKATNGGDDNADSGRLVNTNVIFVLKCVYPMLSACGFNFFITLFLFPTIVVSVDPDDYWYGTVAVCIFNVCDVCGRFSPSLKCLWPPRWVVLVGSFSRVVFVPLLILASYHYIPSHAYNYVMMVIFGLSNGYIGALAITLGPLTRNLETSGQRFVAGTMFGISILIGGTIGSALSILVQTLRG
Protocol: These values can be used to calculate the Gibbs free energy of interaction ΔG°, but these experiments cannot distinguish between the test compound being transported or merely binding to the transporter and inhibiting the transit of the [^3H]-thymidine.
Transport assays were conducted with radiolabeled nucleosides [methyl-^3H]-thymidine (20 Ci/mmol; PerkinElmer (Waltham, MA, USA)) and [2,8-^3H]-adenosine (40 Ci/mmol; American Radiolabeled Chemicals (ARC, St-Louis, MO, USA)). Cells were harvested from mid-log phase cultures by centrifugation and washed into an assay buffer (AB) as described, at a density of 1 × 10^8 cells mL^−1. Transport assays were then performed exactly as described previously, using an oil-stop protocol. Briefly, 100 µL of cell suspension (10^7 cells) was mixed with 100 µL of [^3H]-substrate at 2 × final concentration and incubated for a pre-set time prior to the addition of 800 µL of ice-cold AB containing a saturating concentration of unlabeled permeant (usually 1 or 2.5 mM) and immediate centrifugation through an oil layer to separate cells from extracellular radiolabel. The 100 µL of [^3H]-substrate could also contain unlabeled substrate or an inhibitor at 2 × concentration, as appropriate. Next, the microfuge tubes were flash frozen in liquid nitrogen; the tips with the cell pellets cut off and collected in scintillation tubes. Cells were solubilized by incubation in 2% SDS under gentle shaking on a rocking platform prior to the addition of scintillation fluid (Scintilogic U, Lablogic, Sheffield, UK). The tubes stored in the dark overnight before counting in a 300SL Hidex Scintillation Counter (Lablogic).
Michaelis-Menten constants (Km) were calculated by plotting transport rates of [^3H]-substrate against the concentration, using the Michaelis-Menten equation V0 = Vmax([substrate]/([substrate] + Km)) and non-linear regression in GraphPad Prism 8. Inhibition constants (Ki) were calculated using the Cheng-Prusoff equation: Ki = IC50/(1 + (L/Km)), where L represents the radiolabel concentration. The IC50 was obtained by a non-linear regression of the inhibition curve of transport rate versus inhibitor concentration, using an equation for a sigmoid curve with variable slope (GraphPad Prism 8). The Gibbs free energy ΔG° was obtained using the equation ΔG° = −RTln(Ki), in which R is the gas constant and T is the absolute temperature. As discussed previously, these equations apply to competitive rather than non-competitive inhibition. Given that only close analogues of the substrate were used as potential inhibitors and that Hill slopes were consistently close to −1, it is very likely that inhibition was indeed competitive.

[1] = test system: L. mexicana Cas9 promastigotes; assay: Alamar blue drug sensitivity assay, L. mexicana Cas9 promastigotes; type: cell-based, Leishmania mexicana; conditions: Leishmania mexicana, 120 h, 72 h + 48 h resazurin, at least 3 independent determinations, read-out: EC50 (µM) AVG ± SEM, Cas9
Description: (§1) We used L. mexicana promastigotes of the Cas9 strain developed by Beneke at al. to generate the ΔNT1 strain, and from there the Cas9^ΔNT1+TcrNT2 (see below); The original Cas9 strain was generously donated by Prof. Eva Gluenz (University of Bern, Switzerland). All strains in standard HOMEM (GIBCO, Life Technologies, Paisley, UK) supplemented with 10% heat-inactivated fetal bovine serum (FBS; PAA Laboratories, Linz, Austria) and 1% of a penicillin–streptomycin solution (10,000 U mL^−1 each; Life Technologies) at 25 °C, as described.
(§2) The Alamar blue assay (resazurin sodium salt) was used to determine the drug sensitivity of the L. mexicana promastigotes in vitro. The assay is based on the reduction of resazurin sodium salt (blue and non-fluorescent) to resorufin (pink color and fluorescent) by live cells. HOMEM medium with 10% FBS (100 μL) was added to all wells of a white 96-well plate apart from the first well. 200 μL of a known concentration of test compounds was diluted in HOMEM medium and placed in the first well. Compounds were tested in one plate and every compound was diluted over two rows (23 concentrations), leaving the last well of every dilution as a negative control having 100 μL HOMEM medium. Next, 100 μL of L. mexicana culture at a density of 2 × 10^6 cells mL^−1 was added into every well in the plate and incubated for 72 h at a temperature of 25 °C after which resazurin sodium salt (Sigma) (20 μL of a solution of 12.5 mg in 100 mL PBS) was added and the plate was incubated under the same conditions for a further 48 h. Fluorescence was measured in a FLUOstar OPTIMA plate reader (BMG Labtech, Germany), at a wavelength of 544 nm for excitation and 620 nm for emission. The EC50 values and fluorescence data were determined and plotted by the GraphPad Prism 8 Software using an equation for a sigmoid curve with variable slope. Pentamidine was used as positive control and every experiment was performed 3–4 times independently.

[2] = test system: L. mexicana Cas9^ΔNT1 promastigotes; assay: Alamar blue drug sensitivity assay, L. mexicana Cas9^ΔNT1 promastigotes; type: cell-based, Leishmania mexicana; conditions: EC50 Cas9^ΔNT1 relative to L. mexicana Cas9
Description: as §1, §2

[3] = test system: L. mexicana Cas9^ΔNT1+TcrNT2 promastigotes; assay: Alamar blue drug sensitivity assay, L. mexicana Cas9^ΔNT1+TcrNT2 promastigotes; type: cell-based, Leishmania mexicana; conditions: Cas9^ΔNT1+TcrNT2 in comparison to L. mexicana Cas9^ΔNT1
Description: as §1, §2

[4] = calculated from Km or Ki at 25 °C
[5] = read-out: Ki on the transport of [^3H]-thymidine by TcrNT2
[6] = TcrNT2 in L. mexicana Cas9^ΔNT1, […] [^3H]-thymidine, IC50 converted to Ki (Cheng-Prusoff), read-out: Ki on the transport of [^3H]-thymidine by TcrNT2

| Compound | EC50 [1] [µM] | RF vs. Cas9 (resistance factor) [2] | RF vs. ΔNT1 (resistance factor) [3] | also measured |
| --- | --- | --- | --- | --- |
| Cc1cn([C@H]2C[C@H](O)[C@@H](CO)O2)c(=S)[nH]c1=O [2-thiothymidine] |  |  |  | Ki (TcrNT2): 3.38 ± 0.26 µM; ΔG° (Gibbs free energy of interaction) (TcrNT2): -7.46 kcal/mol |
| Cc1cn([C@H]2CC[C@@H](CO)O2)c(=O)[nH]c1=O [3′-deoxythymidine] |  |  |  | ΔG° (Gibbs free energy of interaction) (TcrNT2; [4]): -4.76 kcal/mol; δ(ΔG°) with respect to ΔG° of thymidine (TcrNT2): -4.21 kcal/mol; Ki (TcrNT2; [5]): 322 ± 22.6 µM |
| Cc1cn([C@H]2C[C@H](O)[C@@H](CO)O2)c(=O)[nH]c1=S [4-thiothymidine] |  |  |  | ΔG° (Gibbs free energy of interaction) (TcrNT2; [4]): -7.58 kcal/mol; Ki (TcrNT2; [5]): 2.79 ± 0.11 µM |
| O=c1[nH]c(=O)n([C@@H]2O[C@H](CO)[C@@H](O)[C@H]2O)cc1Br [5-Br-uridine] |  |  |  | Ki (TcrNT2; [6]): 30.1 ± 1.8 µM; ΔG° (Gibbs free energy of interaction) (TcrNT2; [4]): -6.17 kcal/mol; δ(ΔG°) with respect to ΔG° of thymidine (TcrNT2): -2.82 kcal/mol; δ(ΔG°), pairwise comparison with uridine (TcrNT2): -1.03 kcal/mol |
| O=c1[nH]c(=O)n([C@H]2C[C@H](O)[C@@H](CO)O2)cc1I [5-I-2′-deoxyuridine] |  |  |  | Ki (TcrNT2; [6]): 0.19 ± 0.04 µM; ΔG° (Gibbs free energy of interaction) (TcrNT2; [4]): -9.15 kcal/mol; δ(ΔG°), pairwise comparison with 2′-deoxyuridine (TcrNT2): 1.14 kcal/mol; δ(ΔG°), pairwise comparison with 2′-deoxyuridine (TcrNT2; listed as 5-I-2′-dUrd): -1.15 kcal/mol |
| Cc1cn([C@@H]2O[C@H](CO)[C@@H](O)[C@H]2O)c(=O)[nH]c1=O [5-Me-uridine, 5-methyluridine] |  |  |  | ΔG° (Gibbs free energy of interaction) (TcrNT2; [4]): -6.21 kcal/mol; δ(ΔG°) with respect to ΔG° of thymidine (TcrNT2): -2.77 kcal/mol; δ(ΔG°) with respect to ΔG° of thymidine (TcrNT2; listed as 5-Me-Urd): 2.77 kcal/mol; δ(ΔG°) with respect to ΔG° of thymidine (TcrNT2; listed as 5-methyluridine): 2.765 kcal/mol; δ(ΔG°), pairwise comparison with uridine (TcrNT2): -1.08 kcal/mol; Ki (TcrNT2; [5]): 28 ± 0.4 µM |
| Cc1cn([C@H]2C[C@H](O)[C@@H](C)O2)c(=O)[nH]c1=O [5′-deoxythymidine] |  |  |  | ΔG° (Gibbs free energy of interaction) (TcrNT2; [4]): -7.72 kcal/mol; δ(ΔG°) with respect to ΔG° of thymidine (TcrNT2): -1.26 kcal/mol; Ki (TcrNT2; [5]): 2.2 ± 0.03 µM |
| C[C@H]1O[C@@H](n2ccc(=O)[nH]c2=O)[C@H](O)[C@@H]1O [5′-deoxyuridine] |  |  |  | δ(ΔG°), pairwise comparison with uridine (TcrNT2): -1.05 kcal/mol; Ki (TcrNT2; [5]): 1020 ± 57 µM |
| Cc1ncnc2c1c(-c1ccc(Cl)cc1)cn2[C@@H]1O[C@H](CO)[C@@H](O)[C@H]1O [CL4501] | ~100 | 0.84 | 2.2 |  |
| CNc1ncnc2c1ccn2[C@@H]1O[C@H](CO)[C@@H](O)[C@H]1O [CL5564] | > 100 |  | >5.6 |  |
| Nc1ncnc2c1c(I)cn2[C@@H]1O[C@H](CO)[C@@H](O)[C@H]1O [FH3141] | 1.08 ± 0.202 | 13.4 | 7.83 |  |
| C#Cc1cn([C@@H]2O[C@H](CO)[C@@H](O)[C@H]2O)c2ncnc(N)c12 [FH3143] | 0.12 ± 0.021 | 7.74 | 3.11 |  |
| Nc1ncnc2c1c(F)cn2[C@@H]1O[C@H](CO)[C@@H](O)[C@H]1O [FH3167, 7-F-tubercidin] | 0.22 ± 0.09 | 40.7 | 41.9 |  |
| Nc1ncnc2c1c(C(F)(F)F)cn2[C@@H]1O[C@H](CO)[C@@H](O)[C@H]1O [FH6367, 7-(trifluoromethyl)-tubercidin] | 1.42 ± 0.177 | 1.44 | 1.91 |  |
| Nc1ncnc2c1c(Br)cn2[C@@H]1O[C@H](CO)C[C@H]1O [FH7429-UP] | 8 ± 0.8 | 1.17 | 2.27 |  |
| Nc1ncnc2c1c(-c1ccccc1)cn2[C@@H]1O[C@H](CO)C[C@H]1O [FH8480] | > 500 |  |  |  |
| C#Cc1cn([C@@H]2O[C@H](CO)C[C@H]2O)c2ncnc(N)c12 [FH8505] | 47.2 ± 1.47 | 1.13 | 1.47 |  |
| Nc1ncnc2c1c(-c1ccc(Cl)c(Cl)c1)cn2[C@@H]1O[C@H](CO)C[C@H]1O [FH8513, 7-(3,4-dichlorophenyl)-3′-deoxytubercidin] | ~100 | 0.94 | 3 |  |
| Nc1ncnc2c1c(F)cn2[C@@H]1O[C@H](CO)C[C@H]1O [FH8517, 7-F-3′-deoxytubercidin] | 3.18 ± 0.78 | 3.93 | 1.28 |  |
| Nc1ncnc2c1c(I)cn2[C@@H]1O[C@H](CO)[C@@H](F)[C@H]1O [JB526, 7-I,3′-F-tubercidin] | ~100 | ~0.84 | 11.6 |  |
| Nc1ncnc2c1c(F)cn2[C@@H]1O[C@H](CO)[C@@H](F)[C@H]1O [JB588, 7-F,3′-F-tubercidin] | 0.51 ± 0.093 | 17.3 | 2.15 |  |
| Nc1ncnc2c1c(-c1ccc(Cl)cc1)nn2[C@@H]1O[C@H](CO)[C@@H](O)[C@H]1O [JB602] | > 500 |  |  |  |
| Nc1ncnc2c1c(Br)nn2[C@@H]1O[C@H](CO)[C@@H](O)[C@H]1O [JBMAM021] | 3.8 ± 0.66 | 79.9 | 0.97 |  |
| Nc1ncnc2c1cnn2[C@@H]1O[C@H](CO)[C@@H](O)[C@H]1O [JBMAM030, aminopurinol riboside] | 7.81 ± 0.9 | 39.8 | 0.94 |  |
| N=C(N)c1ccc(OCCCCCOc2ccc(C(=N)N)cc2)cc1 [Pentamidine] | 0.87 ± 0.104 | 1.43 | 1.11 |  |
